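Where inhibition never reached the appropriate level, the endpoint shown equals the highest concentration tested. Otherwise, values were interpolated linearly from a five-concentration, 48-hour dose response in 96-well plates. The concentration for 50% growth inhibition is given as GI50. TGI: concentration producing complete growth inhibition.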
Assays:
Test in all cases: NCI-60 cell line screen, 48 h
OVCAR-4 ovarian = tested on: OVCAR-4 ovarian
SN12C renal = tested on: SN12C renal
786-0 renal = tested on: 786-0 renal
SF-295 CNS = tested on: SF-295 CNS
HCC-2998 colon = tested on: HCC-2998 colon
COLO 205 colon = tested on: COLO 205 colon
EKVX NSCLC = tested on: EKVX NSCLC
BT-549 breast = tested on: BT-549 breast
MCF7 breast = tested on: MCF7 breast
OVCAR-8 ovarian = tested on: OVCAR-8 ovarian
KM12 colon = tested on: KM12 colon
MDA-MB-231 breast = tested on: MDA-MB-231 breast
IGROV1 ovarian = tested on: IGROV1 ovarian
PC-3 prostate = tested on: PC-3 prostate
SK-MEL-2 melanoma = tested on: SK-MEL-2 melanoma
OVCAR-5 ovarian = tested on: OVCAR-5 ovarian
NCI-H226 lung = tested on: NCI-H226 lung
MALME-3M melanoma = tested on: MALME-3M melanoma
ACHN renal = tested on: ACHN renal
TK-10 renal = tested on: TK-10 renal
NCI-H522 lung = tested on: NCI-H522 lung
HCT-116 colon = tested on: HCT-116 colon
CAKI-1 renal = tested on: CAKI-1 renal
CCRF-CEM leukemia = tested on: CCRF-CEM leukemia
NCI/ADR-RES ovarian = tested on: NCI/ADR-RES ovarian
K-562 leukemia = tested on: K-562 leukemia
MDA-MB-435 = tested on: MDA-MB-435
LOX IMVI melanoma = tested on: LOX IMVI melanoma
UO-31 renal = tested on: UO-31 renal
UACC-257 melanoma = tested on: UACC-257 melanoma
NCI-H460 lung = tested on: NCI-H460 lung
HL-60(TB) leukemia = tested on: HL-60(TB) leukemia
SNB-75 CNS = tested on: SNB-75 CNS
T-47D breast = tested on: T-47D breast
SK-OV-3 ovarian = tested on: SK-OV-3 ovarian
SW-620 colon = tested on: SW-620 colon
SNB-19 CNS = tested on: SNB-19 CNS
SK-MEL-5 melanoma = tested on: SK-MEL-5 melanoma
SR leukemia = tested on: SR leukemia
U251 CNS = tested on: U251 CNS
HT29 colon = tested on: HT29 colon
SF-539 CNS = tested on: SF-539 CNS
SK-MEL-28 melanoma = tested on: SK-MEL-28 melanoma
UACC-62 melanoma = tested on: UACC-62 melanoma
M14 melanoma = tested on: M14 melanoma
RPMI-8226 leukemia = tested on: RPMI-8226 leukemia
HOP-92 NSCLC = tested on: HOP-92 NSCLC
HOP-62 NSCLC = tested on: HOP-62 NSCLC
SF-268 CNS = tested on: SF-268 CNS
HCT-15 colon = tested on: HCT-15 colon
OVCAR-3 ovarian = tested on: OVCAR-3 ovarian
DU-145 prostate = tested on: DU-145 prostate
NCI-H23 lung = tested on: NCI-H23 lung
RXF 393 renal = tested on: RXF 393 renal
A549 NSCLC = tested on: A549 NSCLC
MOLT-4 leukemia = tested on: MOLT-4 leukemia
HS 578T breast = tested on: HS 578T breast

Work on `C=C1C(=O)O[C@H]2[C@H]1CC/C(COC(=O)CSCC(=O)OC/C1=C/CC[C@@]3(C)O[C@H]3[C@H]3OC(=O)C(=C)[C@@H]3CC1)=C\CC[C@@]1(C)O[C@@H]21` yielded a GI50 (OVCAR-4 ovarian) of 1790 nM, a TGI (OVCAR-4 ovarian) of 4600 nM and a GI50 (SN12C renal) of 1600 nM. The TGI (SN12C renal) was 3540 nM, the GI50 (786-0 renal) was 1500 nM and the TGI (786-0 renal) was 3220 nM. It also gave a GI50 (SF-295 CNS) of 10200 nM, a TGI (SF-295 CNS) of 26200 nM and a GI50 (HCC-2998 colon) of 2120 nM. It also gave a TGI (HCC-2998 colon) of 4560 nM, a GI50 (COLO 205 colon) of 887 nM and a TGI (COLO 205 colon) of 2440 nM. It also gave a GI50 (EKVX NSCLC) of 1820 nM, a TGI (EKVX NSCLC) of 4120 nM and a GI50 (BT-549 breast) of 1420 nM. For the same compound, the TGI (BT-549 breast) was 2900 nM, the GI50 (MCF7 breast) was 480 nM and the TGI (MCF7 breast) was 2330 nM. For the same compound, the GI50 (OVCAR-8 ovarian) was 1480 nM, the TGI (OVCAR-8 ovarian) was 4210 nM and the GI50 (KM12 colon) was 2590 nM. The TGI (KM12 colon) was 8750 nM, the GI50 (MDA-MB-231 breast) was 1630 nM and the TGI (MDA-MB-231 breast) was 3340 nM. For the same compound, the GI50 (IGROV1 ovarian) was 1470 nM, the TGI (IGROV1 ovarian) was 4020 nM and the GI50 (PC-3 prostate) was 2210 nM. The TGI (PC-3 prostate) was 6920 nM, the GI50 (SK-MEL-2 melanoma) was 2120 nM and the TGI (SK-MEL-2 melanoma) was 5620 nM. For the same compound, the GI50 (OVCAR-5 ovarian) was 1850 nM, the TGI (OVCAR-5 ovarian) was 3860 nM and the GI50 (NCI-H226 lung) was 2280 nM. The TGI (NCI-H226 lung) was 6590 nM, the GI50 (MALME-3M melanoma) was 1240 nM and the TGI (MALME-3M melanoma) was 2800 nM. It also gave a GI50 (ACHN renal) of 1230 nM, a TGI (ACHN renal) of 2480 nM and a GI50 (TK-10 renal) of 1690 nM. The TGI (TK-10 renal) was 3270 nM, the GI50 (NCI-H522 lung) was 1080 nM and the TGI (NCI-H522 lung) was 2490 nM. The GI50 (HCT-116 colon) was 466 nM, the TGI (HCT-116 colon) was 1590 nM and the GI50 (CAKI-1 renal) was 1570 nM. It also gave a TGI (CAKI-1 renal) of 3000 nM, a GI50 (CCRF-CEM leukemia) of 268 nM and a TGI (CCRF-CEM leukemia) of 1250 nM. It also gave a GI50 (NCI/ADR-RES ovarian) of 12000 nM, a TGI (NCI/ADR-RES ovarian) of 40200 nM and a GI50 (K-562 leukemia) of 636 nM. For the same compound, the TGI (K-562 leukemia) was 4060 nM, the GI50 (MDA-MB-435) was 1690 nM and the TGI (MDA-MB-435) was 3920 nM. The GI50 (LOX IMVI melanoma) was 1580 nM, the TGI (LOX IMVI melanoma) was 3100 nM and the GI50 (UO-31 renal) was 1440 nM. For the same compound, the TGI (UO-31 renal) was 2830 nM, the GI50 (UACC-257 melanoma) was 1760 nM and the TGI (UACC-257 melanoma) was 4300 nM. The GI50 (NCI-H460 lung) was 2160 nM, the TGI (NCI-H460 lung) was 4910 nM and the GI50 (HL-60(TB) leukemia) was 432 nM. The TGI (HL-60(TB) leukemia) was 2070 nM, the GI50 (SNB-75 CNS) was 3130 nM and the TGI (SNB-75 CNS) was 10500 nM. For the same compound, the GI50 (T-47D breast) was 2160 nM, the TGI (T-47D breast) was 5720 nM and the GI50 (SK-OV-3 ovarian) was 15600 nM. For the same compound, the TGI (SK-OV-3 ovarian) was 29100 nM, the GI50 (SW-620 colon) was 1020 nM and the TGI (SW-620 colon) was 2440 nM. The GI50 (SNB-19 CNS) was 3110 nM, the TGI (SNB-19 CNS) was 13900 nM and the GI50 (SK-MEL-5 melanoma) was 1730 nM. It also gave a TGI (SK-MEL-5 melanoma) of 3770 nM, a GI50 (SR leukemia) of 282 nM and a TGI (SR leukemia) of 2150 nM. It also gave a GI50 (U251 CNS) of 3190 nM, a TGI (U251 CNS) of 11300 nM and a GI50 (HT29 colon) of 1220 nM. It also gave a TGI (HT29 colon) of 2560 nM, a GI50 (SF-539 CNS) of 2040 nM and a TGI (SF-539 CNS) of 5080 nM. It also gave a GI50 (SK-MEL-28 melanoma) of 1550 nM, a TGI (SK-MEL-28 melanoma) of 3610 nM and a GI50 (UACC-62 melanoma) of 1690 nM. For the same compound, the TGI (UACC-62 melanoma) was 3950 nM, the GI50 (M14 melanoma) was 1630 nM and the TGI (M14 melanoma) was 3870 nM. For the same compound, the GI50 (RPMI-8226 leukemia) was 1450 nM, the TGI (RPMI-8226 leukemia) was 4010 nM and the GI50 (HOP-92 NSCLC) was 1430 nM. The TGI (HOP-92 NSCLC) was 3600 nM, the GI50 (HOP-62 NSCLC) was 5250 nM and the TGI (HOP-62 NSCLC) was 20200 nM. It also gave a GI50 (SF-268 CNS) of 3280 nM, a TGI (SF-268 CNS) of 13900 nM and a GI50 (HCT-15 colon) of 1250 nM. For the same compound, the TGI (HCT-15 colon) was 2690 nM, the GI50 (OVCAR-3 ovarian) was 832 nM and the TGI (OVCAR-3 ovarian) was 2120 nM. It also gave a GI50 (DU-145 prostate) of 1500 nM, a TGI (DU-145 prostate) of 3050 nM and a GI50 (NCI-H23 lung) of 2260 nM. It also gave a TGI (NCI-H23 lung) of 7070 nM, a GI50 (RXF 393 renal) of 416 nM and a TGI (RXF 393 renal) of 1520 nM. For the same compound, the GI50 (A549 NSCLC) was 5000 nM, the TGI (A549 NSCLC) was 18200 nM and the GI50 (MOLT-4 leukemia) was 514 nM. It also gave a TGI (MOLT-4 leukemia) of 2810 nM, a GI50 (HS 578T breast) of 3520 nM and a TGI (HS 578T breast) of 19300 nM.

— PubChem BioAssay (NCI)
